Measured values published in patent publication US9221872B2, “Peptides and peptidomimetics in combination uses and treatments for cancer patient subpopulations” (priority 2013, dated 2015).
Where a SMILES comes first, the peptide text is derived from it. Where no end group is shown, it is not given here. [ ]: non-standard residue; d: D form. dPhe(F5) = N[C@H](Cc1c(F)c(F)c(F)c(F)c1F)C(=O)O; dBpa = N[C@H](Cc1ccc(C(=O)c2ccccc2)cc1)C(=O)O; dCha = N[C@H](CC1CCCCC1)C(=O)O

What was measured:
Jurkat cells [1] = experiment: G2 checkpoint abrogation, bleomycin treated Jurkat cells, flow cytometry; type: cell-based, human; conditions: for G2 checkpoint abrogating activity: bleomycin treated Jurkat cells
Experimental: Cell-Cycle Analysis The cell cycle status of the cells treated with bleomycin or adriamcin were analyzed by flow cytometry as described by Kawabe (1997) Nature 385:454-458. In brief, two million cells were re-suspended and incubated in 200 μl Krishan's solution (0.1% Sodium citrate, 50 μg/ml PI, 20 μg/ml RNase A and 0.5% NP-40) for 1 hr at 4° C. and analyzed by a flow cytometry, FACScan™ (Beckton Dickinson, Mountain View, Calif.) with the program CELLQuest™ (Beckton Dickinson).
Flow cytometry analysis of G2 checkpoint abrogation was performed using human leukemia derived Jurkat cell line. In brief, cultured cells were treated with various doses of peptide/peptidomimetic and 40 μg/ml bleomycine for 24 hr. The DNA of the cells was stained with propidium iodide and analyzed by flow cytometry.
(§1) The “Appearance of side effect when used alone” indicates the peptide/peptidomimetic dose that produced Jurkat cell cycle disturbance, i.e., the appearance of significant amounts of SubG1 cells (dead cells) or cells in which the DNA content of each varies more than usual. […] The “G2 abrogating dose” indicates the peptide/peptidomimetic dose with 40 μg/ml bleomycine that produced detectable G2 checkpoint abrogation activity following treatment for 24 hours. The “Appearance of side effect when used with colchicine” indicates the peptide/peptidomimetic dose with 5 μg/ml colchicine that produced Jurkat cell cycle disturbance following treatment for 24 hours.
(§2) A comparison between G2 checkpoint abrogating activity and non specific toxicity (M checkpoint abrogation) by CB501 was performed. In brief, Jurkat cells were treated with 40 μg/ml bleomycin or 0.5 μg/ml colchicine for G2 checkpoint abrogating activity and non specific toxicity, respectively. The DNA amount in each of the treated cells was analyzed by flow cytometry, as previously described.

[2] = cited from earlier work
[3] = Mouse serum treatment analysis, residual CBP501 quantity by HPLC; type: in vitro ADME; conditions: mouse serum (table title), 37 degree
HUVEC = experiment: Growth of normal human umbilical endothelial cells; type: cell-based
Experimental: Similar studies were performed using normal human umbilical endothelial cells (HUVEC).

[4] = system: CBP501-sensitive tumor cells; conditions: cited from earlier work
Jurkat cells [5] = experiment: M phase checkpoint abrogation / non specific toxicity, colchicine treated Jurkat cells; type: cell-based
Experimental: Flow cytometry analysis of M phase checkpoint abrogation by the compounds was performed using human T cell leukemia Jurkat cell line treated with colchicine (5 μg/ml or 0.5 μg/ml) and various doses of peptide/peptidomimetics for 24 hr (FIG. 12). The DNA of the cells was stained and analyzed by flow cytometry as described above.
as §1, §2

HUVEC cells = experiment: G2 checkpoint abrogation by CBP501 combined with cis-platin in various cell lines; type: cell-based, human; conditions: cis-platin 3 μg/ml, 3 hr, then 45 hr
Experimental: The medium was aspirated, fresh medium without these compounds was added and the cells were incubated for an additional 45 hr. The cells including floating cells were harvested using trypsin-EDTA solution, incubated with Krishan's solution and analyzed for DNA content by flow cytometry as previously described.

M1 and M2 macrophages = experiment: Phagocytic activity of M1 and M2 macrophages, fluorescent beads; type: cell-based, human
Experimental: Referring to FIG. 19, macrophages were obtained by stimulating human peripheral blood mononuclear cells by 0.32 uM of PMA and removing all suspension cells 48 hours of PMA stimulation. The cells were further incubated with 50 ng/ml IFN-gamma, 10 ng/ml LPS to obtain M1 phenotype, and 20 ng/ml IL-4 to obtain M2 macrophages. Both treatment was with or without CBP501. The phagocytic activity was monitored by using fluorescent labelled beads and flow cytometry.

[6] = system: MIAPaCa2 human pancreatic carcinoma cells; experiment: Colony formation analysis of MIAPaCa2 cells; conditions: CBP501 10 μM, cisplatin or oxaliplatin 1, 3 or 9 μg/ml, 3 hours, 10 days
Experimental: Briefly, cells were plated at 300 cells/well in 6 well plates, incubated overnight, and treated with the compounds for three hours. The medium was changed and cultured for an additional 10 days. Cells were subsequently fixed with 70% methanol, stained with 0.1% crystal violet and visualized.

[7] = system: MIAPaCa2 human pancreatic carcinoma; experiment: MIAPaCa2 subcutaneous tumor in scid mice; type: in vivo, mouse
Experimental: To study in vivo efficacy of the compounds, MIAPaCa2 human pancreatic carcinoma cells were implanted subcutaneously in scid mice. The treatment was initiated when the size of the primary tumor became 0.1 cm3 (Day0) or larger, e.g., 7 or 8 mm in diameter. CDDP (3 mg/kg) and CBP 501 (10 or 40 mg/kg) were intra-peritoneally administered alone or in combination. Tumor sizes were measured using calipers three times a week, and volumes were calculated using the formula: weight(mg)=[width (mm)2×length (mm)]/2. Mean tumor sizes for each treatment group are plotted (n=4) against the days after the start of treatment (FIG. 10).

non-squamous NSCLC = experiment: Phase II randomized study, cisplatin and pemetrexed with or without CBP501; type: in vivo, human; conditions: for Hazard Ratio OS: Arm A vs Arm B
Experimental: Clinical Study Design: Open-label, multicenter, phase II randomized, two-arm, comparative study. The protocol evaluated full-dose cisplatin and pemetrexed with or without CBP501. […] Randomization was stratified according to baseline stage of disease (IIIb vs IV), presence of brain metastasis and whether or not patients were eligible for bevacizumab therapy.
A cycle was considered to be 3 weeks (21 days).
3. Cisplatin 75 mg/m^2 was administered as a 1-hour i.v. infusion immediately after the pemetrexed infusion.
Cox proportional hazards model was employed to estimate the hazard ratio (HR) for PFS between the 2 treatment arms. The model included the treatment arm as a factor as well as the randomization stratification factors. The following covariates were explored: age, gender, race (Caucasian/non-Caucasian), prior surgery/procedure (yes/no), prior radiotherapy (yes/no), x-ray interpretation (normal/abnormal), ECG interpretation (normal/abnormal), bone scan (normal/abnormal), and time from diagnosis. Any continuous variables such as age and time from diagnosis to study treatment could have been converted into categorical variables by specifying 2 or several classes of values if a better model fit would result. The exploratory variables were entered using a stepwise regression algorithm using the following criteria: a variable must be significant at the 0.25 level to be entered into the model and significant at 0.15 level to remain in the model. For the final model, the point estimate of the hazard ratios were provided along with 95% CIs.
Subgroup analyses were conducted for patients that had […] at screening. Additional subgroup analysis was performed with a software GraphPad Prism 5 with raw data on each patients analyzed.

MIAPaCa2 = experiment: Sub-G1 (dead cell) analysis of MIAPaCa2 treated with bleomycin or adriamycin; type: cell-based, human; conditions: bleomycine 10 μg/ml or adriamycin 1 μg/ml, 3 hours, then 21 hours
Experimental: The G2 checkpoint abrogating activity of various compounds at different doses on human pancreatic cancer derived cell line MIAPaCa2 treated with bleomycine (Bleo) or adriamycin (ADR) was studied. Briefly, cells were incubated with the compounds and bleomycine (10 μg/ml) or adriamycin (1 μg/ml) for 3 hours. The medium was changed and incubated for an additional 21 hours. Harvested cells were stained for DNA by propium iodide and analyzed with flow cytometry as previously described. The % of the sub-G1 cell population is indicated as dead cells in FIG. 3.

N=C(N)NCCC[C@H](NC(=O)CNC(=O)[C@@H](N)Cc1ccc(O)cc1)C(=O)N[C@@H](CCCCN)C(=O)N[C@@H](CCCCN)C(=O)N[C@@H](CCCNC(=N)N)C(=O)N[C@@H](CCCNC(=N)N)C(=O)N[C@@H](CCC(N)=O)C(=O)N[C@@H](CCCNC(=N)N)C(=O)N[C@@H](CCCNC(=N)N)C(=O)N[C@@H](CCCNC(=N)N)C(=O)N[C@@H](CC1CCCCC1)C(=O)N[C@@H](Cc1c(F)c(F)c(F)c(F)c1F)C(=O)N[C@@H](CCCNC(=N)N)C(=O)N[C@@H](CO)C(=O)N1CCC[C@H]1C(=O)N[C@@H](CO)C(=O)N[C@@H](Cc1ccc(O)cc1)C(=O)N[C@@H](Cc1ccc(O)cc1)C(=O)O [CBP413, (l-Tyr)(l-Gly)(l-Arg)(l-Lys)(l-Lys)(l-Arg)(l-Arg)(l-Gln)(l-Arg)(l-Arg)(l-Arg)(l-Cha)(l-Phe-2,3,4,5,6-F)(l-Arg)(l-Ser)(l-Pro)(l-Ser)(l-Tyr)(l-Tyr)]
G2 abrogating dose (Jurkat cells [1]; with 40 μg/ml bleomycine, 24 hours): ≧1.56 μM

N=C(N)NCCC[C@@H](NC(=O)[C@@H](CCCNC(=N)N)NC(=O)[C@@H](CCC(N)=O)NC(=O)[C@@H](CCCNC(=N)N)NC(=O)[C@@H](CCCNC(=N)N)NC(=O)[C@@H](CCCNC(=N)N)NC(=O)[C@@H](CC1CCCCC1)NC(=O)[C@@H](Cc1c(F)c(F)c(F)c(F)c1F)NC(=O)[C@@H](CO)NC(=O)[C@@H](Cc1c[nH]c2ccccc12)NC(=O)[C@@H](CO)NC(=O)[C@H](N)Cc1ccc(C(=O)c2ccccc2)cc1)C(=O)O [CBP501, (d-Bpa)(d-Ser)(d-Trp)(d-Ser)(d-Phe-2,3,4,5,6-F)(d-Cha)(d-Arg)(d-Arg)(d-Arg)(d-Gln)(d-Arg)(d-Arg)] (H-[dBpa][dS][dW][dS][dPhe(F5)][dCha][dR][dR][dR][dQ][dR][dR]-OH; N-terminus and C-terminus assumed)
Dose limiting allergic reactions (grade 3) ([2]; CBP501 36.4 mg/m^2 and cisplatin 75 mg/m^2): two out of six patients experienced allergic reactions | MTD in patients ([2]; in combination with cisplatin 75 mg/m^2, once every 21 days): 24.3 mg/m^2 | Residual peptide after 1 hr serum treatment [3]: >90% | Effect on growth of normal cells (HUVEC): does not affect the growth of HUVEC cells | Platinum concentration and platinum-DNA adduct formation [4]: increase platinum concentration and platinum-DNA adduct formation | Effect on M phase cell cycle arrest induced by colchicine (Jurkat cells [5]): does not affect M phase cell cycle arrest and/or non specific toxicity induced by colchicine | Dose up to which non specific toxicity (M checkpoint abrogation) was absent (Jurkat cells [5]; 0.5 μg/ml colchicine): > 50 µM | Dose up to which HUVEC cells were not sensitized to cisplatin (HUVEC cells): > 50 µM | Phagocytosis of macrophages in vitro (M1 and M2 macrophages): inhibited phagocytosis of both M1 and M2 macrophages | Effect on cyto-toxic activity of platinum drugs, colony formation [6]: enhanced the cyto-toxic activity of both cisplatin and oxaliplatin | G2 checkpoint abrogating activity (Jurkat cells [1]): abrogated in a dose dependent manner | Tumor growth, treatment alone ([7]; CBP501 10 or 40 mg/kg intra-peritoneally): suppresses the growth of human pancreatic cancer cell in vivo | Tumor growth, combination with cisplatin ([7]; CDDP 3 mg/kg and CBP501 10 or 40 mg/kg intra-peritoneally): increased the anti-tumor activity of cisplatin | Hazard Ratio OS (non-squamous NSCLC; ALL treated, exploring other covariates): 0.77 | Hazard Ratio OS (non-squamous NSCLC; ALL treated, without exploring other covariates): 0.96 | Hazard Ratio OS (non-squamous NSCLC; WBC <10000/μL at screening, exploring other covariates): 0.69 | Hazard Ratio OS (non-squamous NSCLC; WBC <10000/μL at screening, without exploring other covariates): 0.80 | Survival benefit from addition to pemetrexed plus cisplatin (non-squamous NSCLC; all treated population): no statistically significant survival benefit | Survival benefit from addition to pemetrexed plus cisplatin (non-squamous NSCLC; sub-group with normal or low WBC at screening): provided a benefit | Sensitization to DNA damaging agents (% sub-G1 cells) (MIAPaCa2): sensitized MIAPaCa2 cells to both bleomycin and adriamycin in a dose dependent manner

(d-Arg)(d-Arg)(d-Arg)(d-Arg)(d-Bpa)(d-Arg)(d-Trp)(d-Arg)(d-Phe-2,3,4,5,6-F)(d-Cha) ([dR][dR][dR][dR][dBpa][dR][dW][dR][dPhe(F5)][dCha]) [CBP702]
G2 checkpoint abrogating activity (Jurkat cells [1]): retain G2 checkpoint abrogating activity comparable to other peptides having significant G2 checkpoint abrogating activity

(d-Arg)(d-Arg)(d-Arg)(d-Bpa)(d-Arg)(d-Arg)(d-Arg)(d-Phe-2,3,4,5,6-F)(d-Cha) ([dR][dR][dR][dBpa][dR][dR][dR][dPhe(F5)][dCha]) [CBP703]
G2 checkpoint abrogating activity (Jurkat cells [1]): retain G2 checkpoint abrogating activity comparable to other peptides having significant G2 checkpoint abrogating activity

(d-Arg)(d-Arg)(d-Arg)(d-Bpa)(d-Arg)(d-Trp)(d-Arg)(d-Phe-2,3,4,5,6-F)(d-Cha) ([dR][dR][dR][dBpa][dR][dW][dR][dPhe(F5)][dCha]) [CBP701]
G2 checkpoint abrogating activity (Jurkat cells [1]): retain G2 checkpoint abrogating activity comparable to other peptides having significant G2 checkpoint abrogating activity

(d-Arg)(d-Arg)(d-Bpa)(d-Arg)(d-Arg)(d-Arg)(d-Phe-2,3,4,5,6-F)(d-Cha) ([dR][dR][dBpa][dR][dR][dR][dPhe(F5)][dCha]) [CBP700]
G2 checkpoint abrogating activity (Jurkat cells [1]): retain G2 checkpoint abrogating activity comparable to other peptides having significant G2 checkpoint abrogating activity
